Assay results as given in the supplement of paper PMC10883282.

Experiments:
Test in all cases: relative viability vs DMSO control (72 h) (fraction); higher = more viable cells
A204 = test system: A204
Outline: (§1)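 Sarcoma cell lines were grown in 384-well plates seeded toward 80–90% confluence and exposed 24 h later to serially diluted compound. After 72 h at 37 °C and 5% CO2, with 0.1% DMSO vehicle and a 5 µM positive control on the plates, ATPLite was read. Relative viability, given as percent growth averaged over up to triplicate wells, was rescaled so that 1 is full and 0 is none.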

G401 = test system: G401
Outline: as §1

HS729 = test system: HS729
Outline: as §1

KHOS-240S = test system: KHOS-240S
Outline: as §1

MES-SA = test system: MES-SA
Outline: as §1

RD = test system: RD
Outline: as §1

SK-ES-1 = test system: SK-ES-1
Outline: as §1

SK-LMS-1 = test system: SK-LMS-1
Outline: as §1

SW1353 = test system: SW1353
Outline: as §1

SW872 = test system: SW872
Outline: as §1

SW982 = test system: SW982
Outline: as §1

VA-ES-BJ = test system: VA-ES-BJ
Outline: as §1

Cc1[nH]c(/C=C2\C(=O)Nc3ccc(F)cc32)c(C)c1C(=O)NCCN1CCCC1 [Toceranib]
Settings | relative viability
A204, 68 pM | 1.05
A204, 0.000203 µM | 1.01
A204, 0.0006 µM | 1.06
A204, 0.0018 µM | 1.08
A204, 0.0055 µM | 1.03
A204, 0.0165 µM | 0.938
A204, 0.0494 µM | 0.633
A204, 0.1481 µM | 0.442
A204, 0.444 µM | 0.394
A204, 1.333 µM | 0.355
A204, 4 µM | 0.327
G401, 68 pM | 0.991
G401, 0.000203 µM | 0.978
G401, 0.0006 µM | 0.979
G401, 0.0018 µM | 0.983
G401, 0.0055 µM | 0.974
G401, 0.0165 µM | 0.918
G401, 0.0494 µM | 0.941
G401, 0.1481 µM | 0.924
G401, 0.444 µM | 0.938
G401, 1.333 µM | 0.912
G401, 4 µM | 0.787
HS729, 68 pM | 0.982
HS729, 0.000203 µM | 0.926
HS729, 0.0006 µM | 0.901
HS729, 0.0018 µM | 0.859
HS729, 0.0055 µM | 0.84
HS729, 0.0165 µM | 0.778
HS729, 0.0494 µM | 0.765
HS729, 0.1481 µM | 0.729
HS729, 0.444 µM | 0.715
HS729, 1.333 µM | 0.59
HS729, 4 µM | 0.414
KHOS-240S, 68 pM | 1.08
KHOS-240S, 0.000203 µM | 1.105
KHOS-240S, 0.0006 µM | 1.08
KHOS-240S, 0.0018 µM | 1.11
KHOS-240S, 0.0055 µM | 1.03
KHOS-240S, 0.0165 µM | 0.989
KHOS-240S, 0.0494 µM | 0.974
KHOS-240S, 0.1481 µM | 0.941
KHOS-240S, 0.444 µM | 0.865
KHOS-240S, 1.333 µM | 0.705
KHOS-240S, 4 µM | 0.491
MES-SA, 68 pM | 0.932
MES-SA, 0.000203 µM | 0.9214
MES-SA, 0.0006 µM | 0.926
MES-SA, 0.0018 µM | 0.899
MES-SA, 0.0055 µM | 0.915
MES-SA, 0.0165 µM | 0.919
MES-SA, 0.0494 µM | 0.9
MES-SA, 0.1481 µM | 0.919
MES-SA, 0.444 µM | 0.884
MES-SA, 1.333 µM | 0.751
MES-SA, 4 µM | 0.44
RD, 68 pM | 1.06
RD, 0.000203 µM | 1.09
RD, 0.0006 µM | 1.14
RD, 0.0018 µM | 1.07
RD, 0.0055 µM | 1.08
RD, 0.0165 µM | 1.08
RD, 0.0494 µM | 1.11
RD, 0.1481 µM | 1.08
RD, 0.444 µM | 1.08
RD, 1.333 µM | 1.05
RD, 4 µM | 0.786
SK-ES-1, 68 pM | 1.01
SK-ES-1, 0.000203 µM | 1.02
SK-ES-1, 0.0006 µM | 1
SK-ES-1, 0.0018 µM | 0.995
SK-ES-1, 0.0055 µM | 0.996
SK-ES-1, 0.0165 µM | 0.98
SK-ES-1, 0.0494 µM | 0.972
SK-ES-1, 0.1481 µM | 0.913
SK-ES-1, 0.444 µM | 0.802
SK-ES-1, 1.333 µM | 0.43
SK-ES-1, 4 µM | 0.165
SK-LMS-1, 68 pM | 0.939
SK-LMS-1, 0.000203 µM | 0.944
SK-LMS-1, 0.0006 µM | 0.972
SK-LMS-1, 0.0018 µM | 0.968
SK-LMS-1, 0.0055 µM | 0.941
SK-LMS-1, 0.0165 µM | 0.946
SK-LMS-1, 0.0494 µM | 0.906
SK-LMS-1, 0.1481 µM | 0.921
SK-LMS-1, 0.444 µM | 0.893
SK-LMS-1, 1.333 µM | 0.81
SK-LMS-1, 4 µM | 0.717
SW872, 68 pM | 1.05
SW872, 0.000203 µM | 1.05
SW872, 0.0006 µM | 1.03
SW872, 0.0018 µM | 0.982
SW872, 0.0055 µM | 0.954
SW872, 0.0165 µM | 0.971
SW872, 0.0494 µM | 0.944
SW872, 0.1481 µM | 0.939
SW872, 0.444 µM | 0.886
SW872, 1.333 µM | 0.65
SW872, 4 µM | 0.521
SW982, 68 pM | 0.951
SW982, 0.000203 µM | 0.984
SW982, 0.0006 µM | 0.962
SW982, 0.0018 µM | 1.01
SW982, 0.0055 µM | 0.985
SW982, 0.0165 µM | 1
SW982, 0.0494 µM | 0.929
SW982, 0.1481 µM | 0.993
SW982, 0.444 µM | 0.948
SW982, 1.333 µM | 0.571
SW982, 4 µM | 0.31
SW1353, 68 pM | 1.07
SW1353, 0.000203 µM | 1.02
SW1353, 0.0006 µM | 1.02
SW1353, 0.0018 µM | 0.987
SW1353, 0.0055 µM | 0.994
SW1353, 0.0165 µM | 0.973
SW1353, 0.0494 µM | 0.964
SW1353, 0.1481 µM | 0.928
SW1353, 0.444 µM | 0.934
SW1353, 1.333 µM | 0.96
SW1353, 4 µM | 0.893
VA-ES-BJ, 68 pM | 1.07
VA-ES-BJ, 0.000203 µM | 1.05
VA-ES-BJ, 0.0006 µM | 1.04
VA-ES-BJ, 0.0018 µM | 1.03
VA-ES-BJ, 0.0055 µM | 1.04
VA-ES-BJ, 0.0165 µM | 1.01
VA-ES-BJ, 0.0494 µM | 0.987
VA-ES-BJ, 0.1481 µM | 1
VA-ES-BJ, 0.444 µM | 0.961
VA-ES-BJ, 1.333 µM | 0.859
VA-ES-BJ, 4 µM | 0.675
